Assay results from patent US20230265151A1, “GIP/GLP1 CO-AGONIST COMPOUNDS” (priority 2020, published 2023).
Like-named read-outs stand apart in the source and are kept apart here. *1 amine or outer side, *2 acyl side, *3 side chain or, on linkers, in order; H or OH if unused. Where a SMILES comes first, the peptide text is derived from it. Side-chain parts run from the residue outwards. [ ]: non-standard residue; d: D form. The star is where a group is joined. αMePhe(2-F) = C[C@](N)(Cc1ccccc1F)C(=O)O; γGlu = O=C(O)[C@H](CCC(=O)[*:2])N[*:1]; C14 diacid = O=C(O)CCCCCCCCCCCCC(=O)*; αMeY = C[C@](N)(Cc1ccc(O)cc1)C(=O)O; 4Pal = N[C@@H](Cc1ccncc1)C(=O)O; αMeL = CC(C)C[C@](C)(N)C(=O)O; Orn = NCCC[C@H](N)C(=O)O; AEEA = NCCOCCOCC(=O)O; Aib = CC(C)(N)C(=O)O

How the values were obtained:
Format in all cases: cell-based
hGIPR = biological target: T1, hGIPR (Homo sapiens, UniProt P48546); experiment: Functional cAMP formation (HTRF) in HEK-293 clonal cells expressing hGIPR, 0.1% bovine casein, without or with 1.0% human serum albumin; conditions: for EC50: geometric mean, read-out: hGIPR EC50, nM (SEM, n); for Emax: read-out: hGIPR Emax, % ± SEM
T1 construct: expressed in transfected cells
T1 sequence (P48546 22-466): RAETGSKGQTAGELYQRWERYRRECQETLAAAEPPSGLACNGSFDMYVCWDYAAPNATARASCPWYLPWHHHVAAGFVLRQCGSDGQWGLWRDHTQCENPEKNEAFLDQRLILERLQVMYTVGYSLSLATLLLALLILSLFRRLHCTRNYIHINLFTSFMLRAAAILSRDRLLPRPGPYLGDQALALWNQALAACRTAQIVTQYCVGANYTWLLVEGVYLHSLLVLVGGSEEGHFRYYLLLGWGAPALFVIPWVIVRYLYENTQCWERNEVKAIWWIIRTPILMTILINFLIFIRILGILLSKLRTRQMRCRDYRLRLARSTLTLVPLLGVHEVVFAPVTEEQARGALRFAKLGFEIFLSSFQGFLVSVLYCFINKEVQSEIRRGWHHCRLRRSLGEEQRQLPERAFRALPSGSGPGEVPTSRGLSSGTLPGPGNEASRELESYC
Summary of the method: (§1)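 Cells were stimulated with peptide for 30 min at 37° C, then intracellular cAMP was measured by competitive HTRF (665/620 nm ratio) and converted to nM using a cAMP standard curve. Relative EC50 and Emax came from four-parameter logistic fits of percent maximal response against peptide concentration.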

hGCGR = biological target: T2, hGCGR (Homo sapiens, UniProt P47871); experiment: Functional cAMP formation (HTRF) in HEK-293 clonal cells expressing hGCGR, 0.1% bovine casein, without or with 1.0% human serum albumin; conditions: geometric mean, read-out: hGCGR EC50, nM (SEM, n)
T2 construct: expressed in transfected cells
T2 sequence (P47871 26-477): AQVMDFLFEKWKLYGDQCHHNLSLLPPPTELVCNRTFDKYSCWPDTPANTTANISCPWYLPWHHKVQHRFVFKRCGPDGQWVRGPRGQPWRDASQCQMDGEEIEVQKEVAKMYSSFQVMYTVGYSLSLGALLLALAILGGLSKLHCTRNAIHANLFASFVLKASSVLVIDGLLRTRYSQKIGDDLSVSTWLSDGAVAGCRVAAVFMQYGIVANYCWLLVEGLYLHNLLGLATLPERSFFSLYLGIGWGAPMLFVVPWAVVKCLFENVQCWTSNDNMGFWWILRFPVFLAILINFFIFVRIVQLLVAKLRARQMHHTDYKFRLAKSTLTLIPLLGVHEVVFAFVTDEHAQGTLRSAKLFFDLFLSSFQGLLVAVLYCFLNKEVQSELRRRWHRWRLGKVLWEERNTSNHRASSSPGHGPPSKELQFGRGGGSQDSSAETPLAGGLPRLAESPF
Summary of the method: as §1

hGLP-1R = hGLP-1R (Homo sapiens, UniProt P43220); experiment: Functional cAMP formation (HTRF) in HEK-293 clonal cells expressing hGLP-1R, 0.1% bovine casein, without or with 1.0% human serum albumin; parameters: expressed in transfected cells; conditions: for EC50: geometric mean, read-out: hGLP-1R EC50, nM (SEM, n); for Emax: read-out: hGLP-1R Emax, % ± SEM
Chain of hGLP-1R (P43220 24-463): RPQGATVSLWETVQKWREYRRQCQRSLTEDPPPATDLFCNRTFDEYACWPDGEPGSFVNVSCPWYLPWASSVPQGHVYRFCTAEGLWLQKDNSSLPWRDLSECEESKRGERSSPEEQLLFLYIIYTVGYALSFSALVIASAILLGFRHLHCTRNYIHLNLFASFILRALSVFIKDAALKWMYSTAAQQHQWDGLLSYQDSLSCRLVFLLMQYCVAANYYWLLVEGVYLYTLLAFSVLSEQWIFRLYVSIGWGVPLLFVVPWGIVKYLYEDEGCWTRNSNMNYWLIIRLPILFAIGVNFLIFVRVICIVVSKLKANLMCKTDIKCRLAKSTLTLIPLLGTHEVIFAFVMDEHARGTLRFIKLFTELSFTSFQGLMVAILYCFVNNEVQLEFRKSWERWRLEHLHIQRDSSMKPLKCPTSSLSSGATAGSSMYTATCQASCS
Summary of the method: as §1

[1] = 0.1% bovine casein and 1.0% human serum albumin, 37° C.
[2] = HEK293, 0.1% bovine casein and 1.0% human serum albumin, 37° C., percent of maximal response to GIP(1-42)NH2
[3] = HEK293, percent of maximal response to GIP(1-42)NH2, 37° C., 0.1% bovine casein, arithmetic mean
[4] = cAMP, incubated at 37° C., 0.1% bovine casein (no human serum albumin)
[5] = HEK293, percent of maximal response to GLP-1(7-36)NH2, 37° C., 0.1% bovine casein, arithmetic mean

Row | Structure (SMILES) | EC50 (hGIPR; [1]) [nM] | Emax (hGIPR; [2]) [%] | Emax (hGIPR; [3]) [%] | EC50 (hGIPR; [4]) [nM] | EC50 (hGCGR; [1]) [nM] | EC50 (hGCGR; [4]) [nM] | EC50 (hGLP-1R; [1]) [nM] | Emax (hGLP-1R; HEK293, 0.1% bovine casein and 1.0% human serum albumin, 37° C., percent of maximal response to GLP-1(7-36)NH2) [%] | Emax (hGLP-1R; [5]) [%] | EC50 (hGLP-1R; [4]) [nM]
1 | CC[C@H](C)[C@H](NC(=O)[C@H](CC(C)C)NC(=O)[C@](C)(Cc1ccc(O)cc1)NC(=O)[C@@H](CCC(=O)O)NC(=O)[C@@H](NC(=O)[C@H](Cc1ccccc1)NC(=O)[C@H](CCC(=O)O)NC(=O)C(C)(C)NC(=O)[C@H](CCC(N)=O)NC(=O)[C@H](C)NC(=O)[C@H](CCCCNC(=O)COCCOCCNC(=O)COCCOCCNC(=O)CC[C@H](NC(=O)CCCCCCCCCCCCC(=O)O)C(=O)O)NC(=O)[C@H](CCCN)NC(=O)[C@H](CC(=O)O)NC(=O)[C@H](CC(C)C)NC(=O)[C@](C)(CC(C)C)NC(=O)[C@@H](NC(=O)[C@H](CO)NC(=O)[C@H](Cc1ccncc1)NC(=O)[C@H](CC(=O)O)NC(=O)[C@H](CO)NC(=O)[C@@H](NC(=O)[C@](C)(Cc1ccccc1F)NC(=O)[C@@H](NC(=O)CNC(=O)[C@H](CCC(=O)O)NC(=O)C(C)(C)NC(=O)[C@@H](N)Cc1ccc(O)cc1)[C@@H](C)O)[C@@H](C)O)[C@@H](C)CC)[C@@H](C)CC)C(=O)N[C@@H](CCC(=O)O)C(=O)NCC(=O)NCC(=O)N[C@@H](CCCCNC(=O)COCCOCCNC(=O)COCCOCCNC(=O)CC[C@H](NC(=O)CCCCCCCCCCCCC(=O)O)C(=O)O)C(=O)N[C@@H](CO)C(=O)N[C@@H](CO)C(=O)NCC(=O)N[C@@H](CCCN)C(=O)N1CCC[C@H]1C(=O)N1CCC[C@H]1C(=O)N1CCC[C@H]1C(=O)N[C@@H](CO)C(N)=O [Example 153] (H-Y[Aib]EGT[αMePhe(2-F)]TSD[4Pal]SI[αMeL]LD[Orn]K([AEEA-AEEA-γGlu-C14 diacid])AQ[Aib]EFI[dE][αMeY]LIEGGK([AEEA-AEEA-γGlu-C14 diacid])SSG[Orn]PPPS-NH2) | 1.15 | 94.1 ± 3.21 | 97.8 ± 2.74 | 0.0277 | > 9950 | > 9950 | 40.8 | 98.2 ± 5.4 | 91.8 ± 4.63 | 1.1
2 | CC[C@H](C)[C@H](NC(=O)[C@H](CC(C)C)NC(=O)[C@](C)(Cc1ccc(O)cc1)NC(=O)[C@@H](CCC(=O)O)NC(=O)[C@@H](NC(=O)[C@H](Cc1ccccc1)NC(=O)[C@H](CCC(=O)O)NC(=O)C(C)(C)NC(=O)[C@H](CCC(N)=O)NC(=O)[C@H](C)NC(=O)[C@H](CCCCNC(=O)COCCOCCNC(=O)COCCOCCNC(=O)CC[C@H](NC(=O)CCCCCCCCCCCCC(=O)O)C(=O)O)NC(=O)[C@H](CCCN)NC(=O)[C@H](CC(=O)O)NC(=O)[C@H](CC(C)C)NC(=O)[C@](C)(CC(C)C)NC(=O)[C@@H](NC(=O)[C@H](CO)NC(=O)[C@H](Cc1ccncc1)NC(=O)[C@H](CC(=O)O)NC(=O)[C@H](CO)NC(=O)[C@@H](NC(=O)[C@](C)(Cc1ccccc1F)NC(=O)[C@@H](NC(=O)CNC(=O)[C@H](CCC(=O)O)NC(=O)C(C)(C)NC(=O)[C@@H](N)Cc1ccc(O)cc1)[C@@H](C)O)[C@@H](C)O)[C@@H](C)CC)[C@@H](C)CC)C(=O)N[C@@H](CCC(=O)O)C(=O)NCC(=O)NCC(=O)N[C@@H](CCCCNC(=O)COCCOCCNC(=O)COCCOCCNC(=O)CC[C@H](NC(=O)CCCCCCCCCCCCC(=O)O)C(=O)O)C(=O)N[C@@H](CO)C(=O)N[C@@H](CO)C(=O)NCC(=O)N[C@@H](C)C(=O)N1CCC[C@H]1C(=O)N1CCC[C@H]1C(=O)N1CCC[C@H]1C(=O)N[C@@H](CCCN)C(N)=O [Example 154] |  | 93 ± 4.96 | 96.6 ± 3.26 |  | > 9950 | > 9950 | 70.5 |  |  | 1.69
3 | CC[C@H](C)[C@H](NC(=O)[C@H](CC(C)C)NC(=O)[C@](C)(Cc1ccc(O)cc1)NC(=O)[C@@H](CCC(=O)O)NC(=O)[C@@H](NC(=O)[C@H](Cc1ccccc1)NC(=O)[C@H](CCC(=O)O)NC(=O)C(C)(C)NC(=O)[C@H](CCC(N)=O)NC(=O)[C@H](C)NC(=O)[C@H](CCCCNC(=O)COCCOCCNC(=O)COCCOCCNC(=O)CC[C@H](NC(=O)CCCCCCCCCCCCC(=O)O)C(=O)O)NC(=O)[C@H](CCCN)NC(=O)[C@H](CC(=O)O)NC(=O)[C@H](CC(C)C)NC(=O)[C@](C)(CC(C)C)NC(=O)[C@@H](NC(=O)[C@H](CO)NC(=O)[C@H](Cc1ccncc1)NC(=O)[C@H](CC(=O)O)NC(=O)[C@H](CO)NC(=O)[C@@H](NC(=O)[C@](C)(Cc1ccccc1F)NC(=O)[C@@H](NC(=O)CNC(=O)[C@H](CCC(=O)O)NC(=O)C(C)(C)NC(=O)[C@@H](N)Cc1ccc(O)cc1)[C@@H](C)O)[C@@H](C)O)[C@@H](C)CC)[C@@H](C)CC)C(=O)N[C@@H](CCC(=O)O)C(=O)NCC(=O)NCC(=O)N[C@@H](CCCCNC(=O)COCCOCCNC(=O)COCCOCCNC(=O)CC[C@H](NC(=O)CCCCCCCCCCCCC(=O)O)C(=O)O)C(=O)N[C@@H](CO)C(=O)N[C@@H](CO)C(=O)NCC(=O)N[C@@H](CCCN)C(=O)N1CCC[C@H]1C(=O)N1CCC[C@H]1C(=O)N1CCC[C@H]1C(=O)N[C@@H](CCCN)C(N)=O [Example 155] (H-Y[Aib]EGT[αMePhe(2-F)]TSD[4Pal]SI[αMeL]LD[Orn]K([AEEA-AEEA-γGlu-C14 diacid])AQ[Aib]EFI[dE][αMeY]LIEGGK([AEEA-AEEA-γGlu-C14 diacid])SSG[Orn]PPP[Orn]-NH2; N-terminus assumed) | 1.25 | 96.5 ± 1.04 | 96.6 ± 7.55 | 0.0309 | > 9950 | > 9950 | 34.6 |  | 99 ± 5.16 | 0.912
4 | CC[C@H](C)[C@H](NC(=O)[C@H](CC(C)C)NC(=O)[C@](C)(Cc1ccc(O)cc1)NC(=O)[C@@H](CCC(=O)O)NC(=O)[C@@H](NC(=O)[C@H](Cc1ccccc1)NC(=O)[C@H](CCC(=O)O)NC(=O)[C@H](Cc1ccncc1)NC(=O)[C@H](CCC(N)=O)NC(=O)[C@H](C)NC(=O)[C@H](CCCCNC(=O)COCCOCCNC(=O)COCCOCCNC(=O)CC[C@H](NC(=O)CCCCCCCCCCCCC(=O)O)C(=O)O)NC(=O)[C@H](CCCN)NC(=O)[C@H](CC(=O)O)NC(=O)[C@H](CC(C)C)NC(=O)[C@](C)(CC(C)C)NC(=O)[C@@H](NC(=O)[C@H](CO)NC(=O)[C@H](Cc1ccncc1)NC(=O)[C@H](CC(=O)O)NC(=O)[C@H](CO)NC(=O)[C@@H](NC(=O)[C@](C)(Cc1ccccc1F)NC(=O)[C@@H](NC(=O)CNC(=O)[C@H](CCC(=O)O)NC(=O)C(C)(C)NC(=O)[C@@H](N)Cc1ccc(O)cc1)[C@@H](C)O)[C@@H](C)O)[C@@H](C)CC)[C@@H](C)CC)C(=O)N[C@@H](CCC(=O)O)C(=O)NCC(=O)NCC(=O)N[C@@H](CCCCNC(=O)COCCOCCNC(=O)COCCOCCNC(=O)CC[C@H](NC(=O)CCCCCCCCCCCCC(=O)O)C(=O)O)C(=O)N[C@@H](CO)C(=O)N[C@@H](CO)C(=O)NCC(=O)N[C@@H](C)C(=O)N1CCC[C@H]1C(=O)N1CCC[C@H]1C(=O)N1CCC[C@H]1C(=O)N[C@@H](CO)C(N)=O [Example 156] |  |  | 89.9 |  |  | > 9950 |  |  | 110 | 
5 | CC[C@H](C)[C@H](NC(=O)[C@H](CC(C)C)NC(=O)[C@](C)(Cc1ccc(O)cc1)NC(=O)[C@@H](CCC(=O)O)NC(=O)[C@@H](NC(=O)[C@H](Cc1ccccc1)NC(=O)[C@H](Cc1ccncc1)NC(=O)C(C)(C)NC(=O)[C@H](CCC(N)=O)NC(=O)[C@H](C)NC(=O)[C@H](CCCCNC(=O)COCCOCCNC(=O)COCCOCCNC(=O)CC[C@H](NC(=O)CCCCCCCCCCCCC(=O)O)C(=O)O)NC(=O)[C@H](CCCN)NC(=O)[C@H](CC(=O)O)NC(=O)[C@H](CC(C)C)NC(=O)[C@](C)(CC(C)C)NC(=O)[C@@H](NC(=O)[C@H](CO)NC(=O)[C@H](Cc1ccncc1)NC(=O)[C@H](CC(=O)O)NC(=O)[C@H](CO)NC(=O)[C@@H](NC(=O)[C@](C)(Cc1ccccc1F)NC(=O)[C@@H](NC(=O)CNC(=O)[C@H](CCC(=O)O)NC(=O)C(C)(C)NC(=O)[C@@H](N)Cc1ccc(O)cc1)[C@@H](C)O)[C@@H](C)O)[C@@H](C)CC)[C@@H](C)CC)C(=O)N[C@@H](CCC(=O)O)C(=O)NCC(=O)NCC(=O)N[C@@H](CCCCNC(=O)COCCOCCNC(=O)COCCOCCNC(=O)CC[C@H](NC(=O)CCCCCCCCCCCCC(=O)O)C(=O)O)C(=O)N[C@@H](CO)C(=O)N[C@@H](CO)C(=O)NCC(=O)N[C@@H](C)C(=O)N1CCC[C@H]1C(=O)N1CCC[C@H]1C(=O)N1CCC[C@H]1C(=O)N[C@@H](CO)C(N)=O [Example 157] | 0.718 | 89.6 ± 3.39 | 98.8 ± 1.33 | 0.0286 | > 9950 | > 9950 |  |  | 98.5 ± 4.73 | 
